Test results taken from paper PMC8620715, “Biological Activity of Triazolopyrimidine Copper(II) Complexes Modulated by an Auxiliary N-N-Chelating Heterocycle Ligands” (Molecules, 2021).
Where two headings read alike, the source gives them in different places.

Columns and labels:
Saccharomyces cerevisiae = format: cell-based; details: for sensitivity of sod1Δ and sod2Δ to menadione: 0.1 mM, SC medium; for sensitivity of sod1Δ and sod2Δ to menadione / lysine auxotrophy of sod1Δ cells (growth in SC-Lys medium): 16 h; for lysine auxotrophy of sod1Δ cells (growth in SC-Lys medium): various concentrations; for growth of yeast cells (WT, sod1Δ, sod2Δ): concentrations up to 2 mM
Description: The Saccharomyces cerevisiae laboratory strain BY4741 (MATa; his3Δ1; leu2Δ0; met15Δ0; ura3Δ0) considered wild type (WT), and the isogenic strains sod1Δ and sod2Δ lacking the genes SOD1 (encoding Cu/Zn-superoxide dismutase) and SOD2 (encoding Mn-superoxide dismutase) were obtained from EUROSCARF (Frankfurt, Germany). Cells were maintained, manipulated and grown in a rich medium (YPD, 1% w/v yeast extract, 2% w/v peptone, 2% w/v glucose; 2% w/v agar was added for solid media) or on synthetic complete medium (SC, 0.67% w/v yeast nitrogen base without amino acids, 2% w/v glucose) supplemented with the necessary amino acids. Lysine drop-out medium (SC-Lys) was prepared similarly to SC, omitting lysine from the recipe. We added the complexes to autoclaved media from DMSO sterile stocks (10 mM). An overnight culture was 10^3-fold diluted in fresh medium and incubated (200 rpm, 30 °C) until the culture reached a density of 5 × 10^5 cells. The compounds were added to the desired concentrations, and culture growth was monitored at 660 nm in a 96-well multi-scanner plate reader equipped with a thermostat and shaker (Varioskan, Thermo Fischer Scientific, Vantaa, Finland). Three biological replicates were set for all determinations, and data were presented as average ± standard error (SE). The Saccharomyces cerevisiae laboratory strain BY4741 (MATa; his3Δ1; leu2Δ0; met15Δ0; ura3Δ0) considered wild type (WT), and the isogenic strains sod1Δ and sod2Δ lacking the genes SOD1 (encoding Cu/Zn-superoxide dismutase) and SOD2 (encoding Mn-superoxide dismutase) were purchased from EUROSCARF (Frankfurt, Germany). Cells were maintained and manipulated and grown in YPD medium (1% w/v yeast extract, 2% w/v peptone, 2% w/v glucose; 2% w/v agar was added for solid media). Complexes were added to autoclaved media from DMSO sterile stocks (10 mM). To determine the effect of compounds on yeast growth, a fresh overnight pre-culture was 10^3-fold diluted in YPD and incubated (200 rpm, 30 °C) until the culture reached a density of 5 × 10^5 cells/mL. The compounds were added at the desired concentrations, and cell proliferation was monitored at 660 nm in a 96-well multi-scanner auto reader plate reader equipped with a thermostat and shaker (Varioskan Thermo Fischer Scientific, Vantaa, Finland). All determinations were done on three biological replicates.

[1] = tested on: B16 murine melanoma cell line; test: MTT cell viability assay, B16 melanoma cells; format: cell-based, mouse; details: for TI (therapeutic index): BJ vs B16, where no toxicity at highest concentration, a value two times higher was used
Description: Human fibroblast cells (BJ—ATCC CRL-2522, USA) were grown in minimal essential medium (MEM) supplemented with 2 mM L-Glutamine, 10% fetal calf serum (FCS), 100 units/mL of penicillin, and 100 µg/mL of streptomycin at 37 °C in a humidified incubator under an atmosphere containing 5% CO2. Mouse melanoma cells (B16—ATCC CRL—6475, USA) were grown in DMEM (Dulbecco’s Modified Eagle Medium) supplemented with similar reagents as MEM. All cell cultivation media and reagents were purchased from Biochrom AG (Berlin, Germany) and Sigma-Aldrich (Darmstadt, Germany).
Cell viability was evaluated using 3-(4,5-dimethylthiazol-2-yl)-2,5-diphenyltetrazolium bromide (MTT) assay as described previously. First, the cells were seeded in 96-well plates (20000 cells/well) and cultured for 24 h in medium. […] The negative control was represented by cells cultivated in a medium without the investigated compounds. Following incubation, the medium was changed, and the MTT solution was added to each well to a final concentration of 1 mg/mL and incubated for an additional 4 h, at 37 °C. Finally, the medium was collected, and DMSO was used to dissolve the insoluble formazan product. The absorbance of the samples was recorded at 570 nm using a plate reader Mithras 940 (Berthold). The data were corrected for the background, and the percentage of viable cells was obtained using the equation:Cell viability = [(A570 of treated cells)/(A570 of untreated cells)] × 100%(1)
The half-maximal inhibitory concentration (IC50) was determined by fitting the data with a sigmoidal logistical equation using the software Origin 8.1 (Microcal Inc., Los Angeles, CA, USA).

BJ cells [2] = test: Cell morphology by fluorescence microscopy (phalloidin staining), BJ cells; format: cell-based, human; details: 24 h
Description: The morphological changes induced by the treatment of the BJ and B16 cell lines with the tested compounds at two different concentrations (2.5 and 10 µg/mL) applied for 24 h were investigated by fluorescence microscopy.
According to the manufacturer protocol, the cytoskeleton actin filaments of BJ and B16 cells were stained with phalloidin-FITC (Sigma-Aldrich, St. Louis, MO, USA). Briefly, cells were washed with PBS (5 min, 3 times), fixed for 5 min with 3% paraformaldehyde, washed three times with PBS, permeabilized with 0.1% Triton X-100 in PBS for 15 min, washed three times with PBS, stained with 20 μg/mL phalloidin-FITC at room temperature for 1 h and rewashed three times with PBS. The cell nucleus was stained with 8 μM of Hoechst 33342 solution for 10 min, washed three times with PBS, and finally, mounted and sealed on glass slides with FluorSave™ Reagent (Merck Millipore, Germany). The fluorescence images were acquired using an Andor DSD2 Confocal Unit (Andor, Ireland), mounted on an epifluorescence microscope, Olympus BX-51 (Olympus, Germany), equipped with a 40x and 100x objective and an appropriate DAPI/Hoechst filter cube (excitation filter 390/40 […], dichroic mirror 405 nm and emission filter 452/45 nm) and GFP/FITC filter cube (excitation filter 466/40 nm, dichroic mirror 488 nm and emission filter 525/54 nm).

BJ cells [3] = test: Lactate dehydrogenase (LDH) release assay, BJ cells; format: cell-based, human
Description: Membrane integrity after peptide treatment was assessed based on LDH release using a CytoTox 96 Non-Radioactive Cytotoxicity Assay (Promega), as previously described. […] Maximal LDH release was obtained by complete cell lysis induced by using 1% of Triton X-100. The absorption resulting from LDH activity was measured in a microplate reader Mithras 940 (Berthold) at 490 nm, and the % LDH was calculated as: [(corrected absorbance of the LDH released in treated cells)/(corrected absorbance of the total LDH released)] * 100%.

Structure (SMILES) | sensitivity of sod1Δ and sod2Δ to menadione (Saccharomyces cerevisiae) | lysine auxotrophy of sod1Δ cells (growth in SC-Lys medium) (Saccharomyces cerevisiae) | growth of yeast cells (WT, sod1Δ, sod2Δ) (Saccharomyces cerevisiae) | TI (therapeutic index) ([1]; 24 h) | effect on viability of B16 cells ([1]; 24 h and 48 h) | TI (therapeutic index) ([1]; 48 h) | IC50 ([1]; B16, 24 h) [µg/mL] | IC50 ([1]; B16, 24 h, read-out: IC50) [µM] | IC50 ([1]; B16, 48 h) [µg/mL] | IC50 ([1]; B16, 48 h, read-out: IC50) [µM] | morphological changes of BJ cells (BJ cells [2]; 2.5 and 10 µg/mL) | membrane integrity (LDH release) (BJ cells [3]; 24 h and 48 h) | B16 cell viability decreased to ([1]; B16) [%] | morphological changes of BJ cells (BJ cells [2]; 10 μg/mL (11.05 µM)) | membrane integrity (LDH release) (BJ cells [3]; 24 h) | LDH release (BJ cells [3]; 48 h)
Cc1cc(C)n2ncnc2n1.Cc1cc(C)n2ncnc2n1.Cc1cc(C)n2ncnc2n1.O.[Cu+2].[O-][Cl+3]([O-])([O-])[O-].[O-][Cl+3]([O-])([O-])[O-].c1ccc(-c2ccccn2)nc1 [Complex (1), [Cu(bpy)(dmtp)2(OH2)](ClO4)2·dmtp] | alleviated the sensitivity of sod1Δ and sod2Δ to menadione | improved the growth of sod1Δ mutants | not affected | 8.68 | reduced the viability of B16 cells | 12.82 | 5.76 | 6.5 | 3.90 | 4.42 | no effect was observed | did not affect the membrane integrity |  |  |  | 
Cc1cc(C)n2ncnc2n1.Cc1cc(C)n2ncnc2n1.Cc1cc(C)n2ncnc2n1.O.[Cu+2].[O-][Cl+3]([O-])([O-])[O-].[O-][Cl+3]([O-])([O-])[O-].c1cnc2c(c1)ccc1cccnc12 [Complex (2), [Cu(phen)(dmtp)2(OH2)](ClO4)2·dmtp] | alleviated the sensitivity of sod1Δ and sod2Δ to menadione | improved the growth of sod1Δ mutants | not affected | 1.98 |  | 1.08 | 6.88 | 7.6 | 4.15 | 4.58 |  |  | 5 | affected the cellular morphology | not affected | around 20%
